Assay results published in the supplement of paper PMC10307832.

What was measured:
Test in all cases: relative viability (nuclei count vs DMSO), 5 days (fraction); higher = more cells survive
[1] = compound: C1COCCN1C2=NC(=NC3=C2OC4=C3C=CC=N4)C5=CC(=CC=C5)NC(=O)C6=CN=C(C=C6)N + Cc1nc(NC(=O)N2CCC[C@H]2C(N)=O)sc1-c1ccnc(C(C)(C)C(F)(F)F)c1 [Alpelisib] (partner 2 µM)
In short: (§1)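 Lung cancer cell lines were pin-tool dosed in 1536-well plates on the day after seeding, with either a lone drug or a fixed anchor-drug dose plus five library-drug doses (not always all listed) in √10 steps. Nuclei were counted on 4× images after 5 days. Relative viability is the ratio of treated-well to vehicle-well nuclei counts, with each value a median of duplicate plates.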

[2] = compound: CN1CCC(CNc2ccc3ncc(-c4cccc(OC(F)(F)F)c4)n3n2)CC1 [SGI-1776] + Cc1cc(Nc2cc(N3CCN(C)CC3)nc(Sc3ccc(NC(=O)C4CC4)cc3)n2)n[nH]1 [Tozasertib] (partner 0.1 µM)
In short: as §1

[3] = compound: Nc1ccccc1NC(=O)c1ccc(CNC(=O)OCc2cccnc2)cc1 [Entinostat] + CC1(C)CCC(c2ccc(Cl)cc2)=C(CN2CCN(c3ccc(C(=O)NS(=O)(=O)c4ccc(N[C@H](CCN5CCOCC5)CSc5ccccc5)c(S(=O)(=O)C(F)(F)F)c4)cc3)CC2)C1 [Navitoclax] (partner 0.5 µM)
In short: as §1

[4] = compound: Nc1ccccc1NC(=O)c1ccc(CNC(=O)OCc2cccnc2)cc1 [Entinostat] + NC(=O)Nc1cc(-c2cccc(F)c2)sc1C(=O)N[C@H]1CCCNC1 [AZD7762] (partner 0.2 µM)
In short: as §1

Cell Line	relative viability ([1]; first compound 0.02 µM)	relative viability ([1]; first compound 0.06325 µM)	relative viability ([1]; first compound 0.2 µM)	relative viability ([1]; first compound 0.6325 µM)	relative viability ([1]; first compound 2 µM)	relative viability ([2]; first compound 0.08 µM)	relative viability ([2]; first compound 0.8 µM)	relative viability ([2]; first compound 2.53 µM)	relative viability ([2]; first compound 8 µM)	relative viability ([3]; first compound 0.02 µM)	relative viability ([3]; first compound 0.06325 µM)	relative viability ([3]; first compound 0.2 µM)	relative viability ([3]; first compound 0.6325 µM)	relative viability ([3]; first compound 2 µM)	relative viability ([4]; first compound 0.02 µM)	relative viability ([4]; first compound 0.06325 µM)	relative viability ([4]; first compound 0.2 µM)	relative viability ([4]; first compound 0.6325 µM)	relative viability ([4]; first compound 2 µM)
NCI-H1355	0.833	0.933	0.858	0.747	0.759	0.591	0.408	0.305	0.217	0.987	0.946	0.747	0.583	0.444	0.634	0.789	0.618	0.546	0.369
NCI-H1793	0.812	0.842	0.655	0.852	0.59	0.335	0.248	0.252	0.22	0.405	0.599	0.405	0.374	0.218	0.508	0.643	0.302	0.23	0.302
NCI-H1734	0.722	0.684	0.616	0.688	0.598	0.245	0.226	0.246	0.219	0.87	0.874	0.86	0.701	0.412	0.5	0.476	0.364	0.259	0.244
LXF-289	1.12	1.09	1.02	1	0.785	0.171	0.212	0.184	0.0856	0.929	0.908	0.922	0.786	0.567	1.05	1.14	1.07	0.952	0.473
PC-3 [JPC-3]	0.976	1.05	1.1	0.991	0.829	0.911	0.9	0.863	0.544	0.786	0.846	0.777	0.522	0.423	1.06	0.804	0.738	0.522	0.231
NCI-H2087	1.05	1.12	1.05	1.12	0.619	0.257	0.198	0.186	0.192	0.785	0.853	0.724	0.586	0.337	1.22	0.975	1.04	1.03	0.355
NCI-H2170	0.847	0.887	0.682	0.854	0.496	0.708	0.692	0.452	0.181	0.626	0.553	0.502	0.33	0.196	0.876	0.878	0.825	0.602	0.193
HCC-78	0.34	0.331	0.378	0.324	0.318	0.466	0.318	0.41	0.308	0.739	0.652	0.498	0.218	0.181	0.609	0.687	0.466	0.327	0.254
NCI-H1395	1.03	1.03	0.998	1.45	0.89	0.83	0.817	0.644	0.39	1.12	1.25	1.19	0.875	0.794	0.39	0.386	0.395	0.373	0.356
H3255	0.577	0.714	0.628	0.693	0.483	0.574	0.825	0.625	0.277	0.536	0.453	0.309	0.174	0.121	1	0.901	0.756	0.539	0.333
